According to ChEMBL document CHEMBL1148702, “Orally bioavailable potent soluble epoxide hydrolase inhibitors” (J Med Chem, 2007):

Tested on: not listed separately
Experiment: in vivo
Settings: dog, plasma, po, 0.3 mg/kg

Row | AUC [µM·h] | Compound
1 | 0.0667 | O=C(O)CCCCCCCCCCCNC(=O)NC12CC3CC(CC(C3)C1)C2
2 | 0.317 | CCOCCOCCOCCCCCNC(=O)NC12CC3CC(CC(C3)C1)C2

Tested on: Liver microsomes
Experiment: not given
Settings: human

Row | Stability [%] | Compound
3 | 26 | O=C(NC12CC3CC(CC(C3)C1)C2)N[C@H]1CC[C@@H](OCc2c(Cl)cccc2Cl)CC1
4 | 29 | CC(C)Oc1cc(F)c(CO[C@H]2CC[C@@H](NC(=O)NC34CC5CC(CC(C5)C3)C4)CC2)c(F)c1
5 | 20 | O=C(NC12CC3CC(CC(C3)C1)C2)N[C@H]1CC[C@@H](OCc2ccc(Br)cc2)CC1
6 | 41 | O=C(NC12CC3CC(CC(C3)C1)C2)N[C@H]1CC[C@H](OCc2ccc(Br)cc2)CC1
7 | 54 | O=C(NC12CC3CC(CC(C3)C1)C2)N[C@H]1CC[C@H](OCc2ccccc2Cl)CC1
8 | 51 | O=C(NC12CC3CC(CC(C3)C1)C2)N[C@H]1CC[C@H](OCc2c(Cl)cccc2Cl)CC1
9 | 23 | O=C(NC12CC3CC(CC(C3)C1)C2)N[C@H]1CC[C@H](Oc2ccc(Br)cc2)CC1
10 | 69 | O=C(NC12CC3CC(CC(C3)C1)C2)N[C@H]1CC[C@H](Oc2ccc(F)cc2)CC1
11 | 35 | O=C(NC12CC3CC(CC(C3)C1)C2)N[C@H]1CC[C@@H](Oc2ccc(Br)cc2)CC1
12 | 14 | COc1ccc(O[C@H]2CC[C@@H](NC(=O)NC34CC5CC(CC(C5)C3)C4)CC2)cc1
13 | 15 | O=C(NC12CC3CC(CC(C3)C1)C2)N[C@H]1CC[C@@H](Oc2ccc([N+](=O)[O-])cc2)CC1
14 | 25 | O=C(NC12CC3CC(CC(C3)C1)C2)N[C@H]1CC[C@@H](OCc2ccccc2Cl)CC1
15 | 21 | O=C(NC12CC3CC(CC(C3)C1)C2)N[C@H]1CC[C@@H](Oc2ccc(F)cc2)CC1
16 | 43 | O=C(NC12CC3CC(CC(C3)C1)C2)N[C@H]1CC[C@H](OCc2c(F)cccc2F)CC1
17 | 19 | O=C(NC12CC3CC(CC(C3)C1)C2)N[C@H]1CC[C@@H](OCc2c(F)cccc2F)CC1
18 | 67 | O=C(NC12CC3CC(CC(C3)C1)C2)N[C@H]1CC[C@H](OCc2ccccc2)CC1
19 | 67 | Cc1ccccc1CO[C@H]1CC[C@H](NC(=O)NC23CC4CC(CC(C4)C2)C3)CC1
20 | 20 | O=C(NC12CC3CC(CC(C3)C1)C2)N[C@H]1CC[C@@H](Oc2cc(F)cc(F)c2)CC1
21 | 14 | Cc1ccccc1CO[C@H]1CC[C@@H](NC(=O)NC23CC4CC(CC(C4)C2)C3)CC1
22 | 34 | CC(C)Oc1cc(F)c(CO[C@H]2CC[C@H](NC(=O)NC34CC5CC(CC(C5)C3)C4)CC2)c(F)c1
23 | 82 | COc1ccc(O[C@H]2CC[C@H](NC(=O)NC34CC5CC(CC(C5)C3)C4)CC2)cc1
